Reference: US20260137703A1, “2-AMINO-PYRIDO[2,3-D]PYRIMIDIN-7(8H)-ONE AND 7-AMINO-1-PYRIMIDO[4,5-D]PYRIMIDIN-2(1 H)-ONE DERIVATIVES AS EGFR INHIBITORS FOR THE TREATMENT OF CANCER” (Cancer Research Technology Limited, priority 2022, published 2026)
Where a name gives a salt, the structure may show the parent alone.

Key:
[1] = target: T1, Phospho-EGFR (Tyr1068) in H1975 cells (Homo sapiens, UniProt P00533, L858R/T790M); assay: HTRF pEGFR/total EGFR in H1975 cells; type: cell-based; settings: ratio pEGFR/total EGFR, compound 3 hours
T1 construct: host or cells: H1975
T1 sequence (P00533 25-1210 T790M/L858R): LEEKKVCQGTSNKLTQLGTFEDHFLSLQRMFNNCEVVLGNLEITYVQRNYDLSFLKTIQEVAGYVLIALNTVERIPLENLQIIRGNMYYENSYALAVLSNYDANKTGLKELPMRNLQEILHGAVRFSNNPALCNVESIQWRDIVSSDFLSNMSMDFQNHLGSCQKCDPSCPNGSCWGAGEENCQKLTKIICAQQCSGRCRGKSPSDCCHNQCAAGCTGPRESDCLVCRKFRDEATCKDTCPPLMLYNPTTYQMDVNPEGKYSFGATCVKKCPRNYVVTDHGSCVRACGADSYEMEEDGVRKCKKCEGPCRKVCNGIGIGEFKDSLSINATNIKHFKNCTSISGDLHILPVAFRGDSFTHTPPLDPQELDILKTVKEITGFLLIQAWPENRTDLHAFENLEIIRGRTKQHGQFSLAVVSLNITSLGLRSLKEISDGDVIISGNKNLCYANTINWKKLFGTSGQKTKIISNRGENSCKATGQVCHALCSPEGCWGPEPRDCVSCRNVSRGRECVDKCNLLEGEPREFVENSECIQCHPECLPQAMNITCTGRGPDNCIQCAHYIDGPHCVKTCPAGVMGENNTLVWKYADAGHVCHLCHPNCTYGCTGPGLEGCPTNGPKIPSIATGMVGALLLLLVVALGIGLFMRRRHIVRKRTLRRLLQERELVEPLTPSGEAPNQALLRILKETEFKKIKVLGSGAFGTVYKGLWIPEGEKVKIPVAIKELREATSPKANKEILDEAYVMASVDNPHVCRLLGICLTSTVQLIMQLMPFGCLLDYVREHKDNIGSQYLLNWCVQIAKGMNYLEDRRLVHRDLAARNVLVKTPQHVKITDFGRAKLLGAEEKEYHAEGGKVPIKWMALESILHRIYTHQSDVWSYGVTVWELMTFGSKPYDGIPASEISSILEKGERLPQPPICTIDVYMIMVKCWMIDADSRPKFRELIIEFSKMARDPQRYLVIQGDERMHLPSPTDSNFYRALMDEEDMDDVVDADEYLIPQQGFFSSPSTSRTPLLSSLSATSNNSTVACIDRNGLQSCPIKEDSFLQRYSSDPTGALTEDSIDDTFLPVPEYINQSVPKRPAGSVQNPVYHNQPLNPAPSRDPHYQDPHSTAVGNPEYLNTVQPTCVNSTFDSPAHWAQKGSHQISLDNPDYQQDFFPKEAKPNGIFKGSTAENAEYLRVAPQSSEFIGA
In short: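 Readout is the phospho-EGFR (Tyr1068) to total EGFR HTRF ratio, expressed relative to 0 μM control. Adhered H1975 cells were exposed to compound for 3 hours at 0.1% DMSO, duplicate wells, then lysed for 30 min at room temperature before two-wavelength fluorescence reading.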

[2] = target: T2, Phospho-EGFR (Tyr1068) in H1975 C797S cells (CRISPR-edited EGFR C797S) (Homo sapiens, UniProt P00533, C797S/L858R/T790M); assay: HTRF pEGFR/total EGFR in H1975 C797S cells; type: cell-based; settings: ratio pEGFR/total EGFR, compound 3 hours
T2 construct: host or cells: H1975 C797S (CRISPR-edited)
T2 sequence (P00533 25-1210 T790M/C797S/L858R): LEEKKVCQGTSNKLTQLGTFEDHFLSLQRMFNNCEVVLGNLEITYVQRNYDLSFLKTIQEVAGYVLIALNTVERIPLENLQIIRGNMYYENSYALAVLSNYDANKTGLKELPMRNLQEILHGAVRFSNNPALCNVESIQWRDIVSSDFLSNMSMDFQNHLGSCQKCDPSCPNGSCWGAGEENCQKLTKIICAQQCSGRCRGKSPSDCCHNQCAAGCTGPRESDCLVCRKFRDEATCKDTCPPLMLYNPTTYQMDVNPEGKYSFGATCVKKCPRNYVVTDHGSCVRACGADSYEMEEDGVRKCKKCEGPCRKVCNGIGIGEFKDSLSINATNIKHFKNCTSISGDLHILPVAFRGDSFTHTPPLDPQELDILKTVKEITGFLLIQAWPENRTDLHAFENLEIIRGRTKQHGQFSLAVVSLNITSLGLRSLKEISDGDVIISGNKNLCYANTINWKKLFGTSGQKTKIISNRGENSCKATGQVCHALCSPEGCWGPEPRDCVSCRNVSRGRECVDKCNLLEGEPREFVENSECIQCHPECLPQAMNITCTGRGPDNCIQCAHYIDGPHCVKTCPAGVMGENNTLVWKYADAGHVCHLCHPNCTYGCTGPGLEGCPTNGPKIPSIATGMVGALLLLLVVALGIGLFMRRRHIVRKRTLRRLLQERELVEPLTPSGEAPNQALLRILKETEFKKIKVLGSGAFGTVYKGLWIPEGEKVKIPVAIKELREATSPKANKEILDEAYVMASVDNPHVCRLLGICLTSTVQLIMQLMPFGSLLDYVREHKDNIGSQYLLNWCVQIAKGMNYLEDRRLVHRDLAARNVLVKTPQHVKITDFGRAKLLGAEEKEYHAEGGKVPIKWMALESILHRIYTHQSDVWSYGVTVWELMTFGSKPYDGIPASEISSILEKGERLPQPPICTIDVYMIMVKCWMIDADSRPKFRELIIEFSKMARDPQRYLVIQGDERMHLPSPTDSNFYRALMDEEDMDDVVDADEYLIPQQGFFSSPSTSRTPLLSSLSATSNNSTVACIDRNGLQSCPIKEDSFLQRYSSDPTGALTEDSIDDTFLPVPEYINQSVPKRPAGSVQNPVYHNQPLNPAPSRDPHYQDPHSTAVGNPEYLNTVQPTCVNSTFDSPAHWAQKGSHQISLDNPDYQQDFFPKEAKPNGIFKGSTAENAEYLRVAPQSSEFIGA
In short: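 Readout is the HTRF-measured Tyr1068 phospho-EGFR to total EGFR ratio, normalised to the 0 μM control as percent. Preceding this, CRISPR-edited H1975 C797S cells, plated 24 h earlier, were exposed 3 h to duplicate compound doses in medium with 0.1% DMSO, then lysed on a shaker.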

[3] = target: T3, Phospho-EGFR (Tyr1068) in A431 cells (Homo sapiens, UniProt P00533); assay: HTRF pEGFR/total EGFR in A431 cells with EGF stimulation; type: cell-based; settings: ratio pEGFR/total EGFR, compound 2.5 hours then 100 ng/ml EGF 30 mins
T3 construct: endogenous in cells; host or cells: A431
T3 sequence (P00533 25-1210): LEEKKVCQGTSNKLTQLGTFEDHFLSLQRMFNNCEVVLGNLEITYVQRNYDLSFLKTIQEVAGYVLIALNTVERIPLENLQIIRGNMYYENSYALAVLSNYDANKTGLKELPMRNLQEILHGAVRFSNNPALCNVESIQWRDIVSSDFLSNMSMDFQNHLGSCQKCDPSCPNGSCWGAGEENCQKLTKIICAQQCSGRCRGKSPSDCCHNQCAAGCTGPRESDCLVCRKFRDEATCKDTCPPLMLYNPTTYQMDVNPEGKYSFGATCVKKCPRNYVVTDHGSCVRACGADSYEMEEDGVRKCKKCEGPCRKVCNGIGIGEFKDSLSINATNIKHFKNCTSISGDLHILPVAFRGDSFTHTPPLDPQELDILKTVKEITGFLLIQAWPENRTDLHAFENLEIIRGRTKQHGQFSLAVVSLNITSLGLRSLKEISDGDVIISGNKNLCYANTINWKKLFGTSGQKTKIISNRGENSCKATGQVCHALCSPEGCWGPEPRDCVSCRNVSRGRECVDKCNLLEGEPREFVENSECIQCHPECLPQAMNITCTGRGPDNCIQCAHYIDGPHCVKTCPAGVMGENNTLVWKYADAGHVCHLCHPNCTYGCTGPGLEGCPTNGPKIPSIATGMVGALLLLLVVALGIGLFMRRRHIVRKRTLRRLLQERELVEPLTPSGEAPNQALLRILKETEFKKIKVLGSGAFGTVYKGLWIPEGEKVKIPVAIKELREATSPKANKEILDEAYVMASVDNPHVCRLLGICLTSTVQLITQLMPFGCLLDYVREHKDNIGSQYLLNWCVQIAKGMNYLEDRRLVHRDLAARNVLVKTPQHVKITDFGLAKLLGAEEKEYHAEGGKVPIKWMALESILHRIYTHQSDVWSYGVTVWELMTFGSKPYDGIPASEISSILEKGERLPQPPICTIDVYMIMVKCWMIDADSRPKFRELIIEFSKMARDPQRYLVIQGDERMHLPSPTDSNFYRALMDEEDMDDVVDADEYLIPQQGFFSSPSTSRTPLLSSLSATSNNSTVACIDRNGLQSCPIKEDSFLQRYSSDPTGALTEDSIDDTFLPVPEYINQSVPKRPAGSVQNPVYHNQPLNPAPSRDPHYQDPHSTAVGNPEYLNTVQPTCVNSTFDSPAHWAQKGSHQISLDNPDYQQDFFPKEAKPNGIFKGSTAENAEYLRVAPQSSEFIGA
In short: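 Values are pEGFR(Tyr1068)/total EGFR HTRF ratios (665/620 nm) given as percent of the 0 μM control. Adhered A431 cells (20,000 per well, 24 h) had 2.5 h compound pretreatment in 0.1% DMSO, then 30 min of 100 ng/ml EGF before lysis.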

[4] = target: CtermHisTag-mEGFR Wild type (Homo sapiens, UniProt P00533); assay: biochemical
Chain of CtermHisTag-mEGFR Wild type (P00533 whole entry): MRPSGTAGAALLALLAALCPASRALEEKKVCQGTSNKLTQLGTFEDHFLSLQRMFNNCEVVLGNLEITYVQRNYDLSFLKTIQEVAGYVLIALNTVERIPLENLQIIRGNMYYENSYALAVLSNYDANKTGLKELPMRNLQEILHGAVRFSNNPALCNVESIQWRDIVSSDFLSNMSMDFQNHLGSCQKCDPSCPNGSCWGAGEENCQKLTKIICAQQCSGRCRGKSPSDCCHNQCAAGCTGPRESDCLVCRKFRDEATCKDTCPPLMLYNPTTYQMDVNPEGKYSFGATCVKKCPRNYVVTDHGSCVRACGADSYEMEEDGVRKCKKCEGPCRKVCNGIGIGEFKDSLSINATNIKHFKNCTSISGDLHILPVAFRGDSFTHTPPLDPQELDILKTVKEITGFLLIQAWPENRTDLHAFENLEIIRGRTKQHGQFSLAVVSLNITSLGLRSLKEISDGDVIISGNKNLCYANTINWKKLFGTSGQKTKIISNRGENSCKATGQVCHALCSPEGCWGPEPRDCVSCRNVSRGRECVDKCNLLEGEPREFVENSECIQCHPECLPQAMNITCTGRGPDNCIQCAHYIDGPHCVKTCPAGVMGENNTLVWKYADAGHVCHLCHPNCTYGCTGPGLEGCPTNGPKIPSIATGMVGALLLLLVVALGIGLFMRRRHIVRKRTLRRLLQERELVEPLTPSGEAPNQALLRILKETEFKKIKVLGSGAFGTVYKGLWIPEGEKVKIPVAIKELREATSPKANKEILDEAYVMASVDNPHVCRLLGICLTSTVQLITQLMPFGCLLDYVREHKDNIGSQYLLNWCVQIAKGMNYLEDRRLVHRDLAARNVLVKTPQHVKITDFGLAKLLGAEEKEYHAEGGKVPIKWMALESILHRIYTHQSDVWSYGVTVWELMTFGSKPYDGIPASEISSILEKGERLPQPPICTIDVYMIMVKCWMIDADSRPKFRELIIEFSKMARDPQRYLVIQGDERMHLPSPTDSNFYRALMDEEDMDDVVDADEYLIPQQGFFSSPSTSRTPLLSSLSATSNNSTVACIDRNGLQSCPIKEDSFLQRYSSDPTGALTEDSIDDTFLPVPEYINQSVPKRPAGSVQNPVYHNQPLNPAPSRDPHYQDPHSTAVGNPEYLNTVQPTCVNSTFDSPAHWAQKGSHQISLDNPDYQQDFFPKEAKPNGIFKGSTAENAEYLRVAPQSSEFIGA

| Compound | IC50 [1] [µM] | IC50 [2] [µM] | IC50 [3] [µM] | IC50 [4] [µM] |
| --- | --- | --- | --- | --- |
| C#Cc1cc(=O)n(-c2cccc(NC(=O)COC(C)=O)c2)c2nc(Nc3ccccc3OC)ncc12 [Example 59, 2-((3-(5-Ethynyl-2-((2-methoxyphenyl)amino)-7-oxopyrido[2,3-d]pyrimidin-8(7H)-yl)phenyl)amino)-2-oxoethyl acetate] | > 3 | > 3 | > 3 | 1 to 10 |
| C#Cc1cc(=O)n(-c2ccc([N+](=O)[O-])cc2)c2nc(Nc3ccccc3OC)ncc12 [Example 60, 5-Ethynyl-2-((2-methoxyphenyl)amino)-8-(4-nitrophenyl)pyrido[2,3-d]pyrimidin-7(8H)-one] | > 3 | > 3 | > 3 | 1 to 10 |
| C#Cc1cc(=O)n(-c2ccc(N)cc2)c2nc(Nc3ccccc3OC)ncc12 [Example 61, 8-(4-Aminophenyl)-5-ethynyl-2-((2-methoxyphenyl)amino)pyrido[2,3-d]pyrimidin-7(8H)-one] | > 3 | > 3 | > 3 | < 1 |
| C#Cc1cc(=O)n(-c2ccc(NC(C)=O)cc2)c2nc(Nc3ccccc3OC)ncc12 [Example 62, N-(4-(5-Ethynyl-2-((2-methoxyphenyl)amino)-7-oxopyrido[2,3-d]pyrimidin-8(7H)-yl)phenyl)acetamide] | > 3 | > 3 | > 3 | 1 to 10 |
| C#Cc1cc(=O)n(-c2ccc(NS(C)(=O)=O)cc2)c2nc(Nc3ccccc3OC)ncc12 [Example 63, N-(4-(5-Ethynyl-2-((2-methoxyphenyl)amino)-7-oxopyrido[2,3-d]pyrimidin-7(8H)-yl)phenyl)methanesulfonamide] | > 3 | > 3 | > 3 | < 1 |
| C#Cc1cc(=O)n(-c2ccc(NC(=O)COC(C)=O)cc2)c2nc(Nc3ccccc3OC)ncc12 [Example 64, 2-((4-(5-Ethynyl-2-((2-methoxyphenyl)amino)-7-oxopyrido[2,3-d]pyrimidin-8(7H)-yl)phenyl)amino)-2-oxoethyl acetate] | > 3 | > 3 | > 3 | 1 to 10 |
| C#Cc1cc(=O)n(-c2ccc(NC(=O)CC)cc2)c2nc(Nc3ccccc3OC)ncc12 [Example 65, N-(4-(5-Ethynyl-2-((2-methoxyphenyl)amino)-7-oxopyrido[2,3-d]pyrimidin-7(8H)-yl)phenyl)propionamide] | > 3 | > 3 | > 3 | 1 to 10 |
| C#Cc1cc(=O)n(-c2ccc(NC(=O)C3CC3)cc2)c2nc(Nc3ccccc3OC)ncc12 [Example 66, N-(4-(5-Ethynyl-2-((2-methoxyphenyl)amino)-7-oxopyrido[2,3-d]pyrimidin-8(7H)-yl)phenyl)cyclopropanecarboxamide] | > 3 | > 3 | > 3 | 1 to 10 |
| C#Cc1cc(=O)n(C[C@@H]2CCC(=O)N2)c2nc(Nc3ccc(N4CCN(C)CC4)cc3)ncc12 [Example 71, (S)-5-Ethynyl-2-((4-(4-methylpiperazin-1-yl)phenyl)amino)-8-((5-oxopyrrolidin-2-yl)methyl)pyrido[2,3-d]pyrimidin-7(8H)-one] | > 3 | > 3 | > 3 | > 10 |
| C#Cc1cc(=O)n([C@@H]2CCCN(C(=O)CC)C2)c2nc(Nc3ccc(N(C)CCN(C)C)cc3)ncc12 [Example 77, (R)-2-((4-((2-(Dimethylamino)ethyl)(methyl)amino)phenyl)amino)-5-ethynyl-8-(1-propionylpiperidin-3-yl)pyrido[2,3-d]pyrimidin-7(8H)-one trifluoroacetic acid salt] | > 3 | > 3 | > 3 | > 10 |

The remaining lines, values ahead:

| IC50 [1] [µM] | IC50 [2] [µM] | IC50 [3] [µM] | IC50 [4] [µM] | Compound |
| --- | --- | --- | --- | --- |
| 1 to 3 | > 3 | > 3 | 1 to 10 | C#Cc1cc(=O)n(-c2cccc(N)c2)c2nc(Nc3ccccc3OC)ncc12 [Example 55, 8-(3-Aminophenyl)-5-ethynyl-2-((2-methoxyphenyl)amino)pyrido[2,3-d]pyrimidin-7(8H)-one] |
| < 0.5 | < 0.5 | 1 to 3 | < 1 | C#Cc1cc(=O)n(CC2CCCC2)c2nc(Nc3ccc(N4CCN(C)CC4)cc3)ncc12 [Example 67, 8-(Cyclopentylmethyl)-5-ethynyl-2-((4-(4-methylpiperazin-1-yl)phenyl)amino)pyrido[2,3-d]pyrimidin-7(8H)-one] |
| < 0.5 | 0.5 to 1 | 1 to 3 | < 1 | C#Cc1cc(=O)n(C2CCCCC2)c2nc(Nc3ccc(N4CCN(C)CC4)cc3)ncc12 [Example 68, 8-Cyclohexyl-5-ethynyl-2-((4-(4-methylpiperazin-1-yl)phenyl)amino)pyrido[2,3-d]pyrimidin-7(8H)-one] |
| < 0.5 | 1 to 3 | > 3 | < 1 | C#Cc1cc(=O)n(C2CCOCC2)c2nc(Nc3ccc(N4CCN(C)CC4)cc3)ncc12 [Example 69, 5-Ethynyl-2-((4-(4-methylpiperazin-1-yl)phenyl)amino)-8-(tetrahydro-2H-pyran-4-yl)pyrido[2,3-d]pyrimidin-7(8H)-one] |
| < 0.5 | < 0.5 | > 3 | < 1 | C#Cc1cc(=O)n(CC2CCOC2)c2nc(Nc3ccc(N4CCN(C)CC4)cc3)ncc12 (centres unmarked) [Example 70, 5-Ethynyl-2-((4-(4-methylpiperazin-1-yl)phenyl)amino)-8-((tetrahydrofuran-3-yl)methyl)pyrido[2,3-d]pyrimidin-7(8H)-one] |
| 0.5 to 1 | < 0.5 | > 3 | < 1 | C#Cc1cc(=O)n(CC2CCCO2)c2nc(Nc3ccc(N4CCN(C)CC4)cc3)ncc12 (centres unmarked) [Example 72, 5-Ethynyl-2-((4-(4-methylpiperazin-1-yl)phenyl)amino)-8-((tetrahydrofuran-2-yl)methyl)pyrido[2,3-d]pyrimidin-7(8H)-one] |
| 0.5 to 1 | 1 to 3 | > 3 | 1 to 10 | C#Cc1cc(=O)n(C2CCCC2O)c2nc(Nc3ccc(N4CCN(C)CC4)cc3)ncc12 (centres unmarked) [Example 73, 5-Ethynyl-8-(2-hydroxycyclopentyl)-2-((4-(4-methylpiperazin-1-yl)phenyl)amino)pyrido[2,3-d]pyrimidin-7(8H)-one] |
| < 0.5 | 0.5 to 1 | > 3 | < 1 | C#Cc1cc(=O)n(C(C)C)c2nc(Nc3ccc(N4CCN(C)CC4)cc3)ncc12 [Example 76, 5-Ethynyl-8-isopropyl-2-{[4-(4-methylpiperazin-1-yl)phenyl]amino}pyrido[2,3-d]pyrimidin-7-one] |
| < 0.5 | < 0.5 | > 3 | < 1 | C#Cc1cc(=O)n(C2CCCC2)c2nc(Nc3ccc(N4CCN(C)CC4)cc3)ncc12 [Example 78, 8-cyclopentyl-5-ethynyl-2-((4-(4-methylpiperazin-1-yl)phenyl)amino)pyrido[2,3-d]pyrimidin-7(8H)-one] |
| < 0.5 | < 0.5 | 1 to 3 | < 1 | C#Cc1cc(=O)n([C@H]2CC[C@@H](NC(C)=O)CC2)c2nc(Nc3ccc(N(C)CCN(C)C)cc3)ncc12 [Example 79, N-[(1s,4s)-4-{2-[(4-{[2-(Dimethylamino)ethyl](methyl)amino}phenyl)amino]-5-ethynyl-7-oxopyrido[2,3-d]pyrimidin-8-yl}cyclohexyl]acetamide] |
| < 0.5 | 0.5 to 1 | 1 to 3 | < 1 | C#Cc1cc(=O)n([C@H]2CC[C@@H](CO)CC2)c2nc(Nc3ccc(N(C)CCN(C)C)cc3)ncc12 [Example 80, 2-[(4-{[2-(Dimethylamino)ethyl](methyl)amino}phenyl)amino]-5-ethynyl-8-[(1s,4s)-4-(hydroxymethyl)cyclohexyl]pyrido[2,3-d]pyrimidin-7-one] |
| < 0.5 | < 0.5 | > 3 | < 1 | C#Cc1cc(=O)n([C@H]2CC[C@@H](NC(=O)CC)CC2)c2nc(Nc3ccc(N4CCN(C)CC4)cc3)ncc12 [Example 81, N-[(1s,4s)-4-(5-Ethynyl-2-{[4-(4-methylpiperazin-1-yl)phenyl]amino}-7-oxopyrido[2,3-d]pyrimidin-8-yl)cyclohexyl]propanamide] |
| < 0.5 | < 0.5 | > 3 | < 1 | C#Cc1cc(=O)n([C@H]2CC[C@@H](NC(=O)C(C)C)CC2)c2nc(Nc3ccc(N4CCN(C)CC4)cc3)ncc12 [Example 82, 2-Methyl-N-[(1s,4s)-4-(5-ethynyl-2-{[4-(4-methylpiperazin-1-yl)phenyl]amino}-7-oxopyrido[2,3-d]pyrimidin-8-yl)cyclohexyl]propanamide] |
